Converted amounts (≈) assume the structure as drawn.
Experiments:
Type in all cases: functional
Details in all cases: read-out: ED50 (the source's name)
HCT-15 = experiment: Cytotoxicity against human HCT15 cells
XF498 = experiment: Cytotoxicity against human XF498 cells
SK-MEL-2 = experiment: Cytotoxicity against human SK-MEL-2 cells
SK-OV-3 = experiment: Cytotoxicity against human SKOV3 cells
A549 = experiment: Cytotoxicity against human A549 cells

COc1cccc2c1C(=O)c1c(O)c3c(c(O)c1C2=O)C[C@@](O)(C(=O)CO)C[C@@H]3O[C@H]1C[C@H](N)[C@H](O)[C@H](C)O1 [DOXORUBICIN]
EC50 (HCT-15): 0.07 µg/mL (≈ 0.129 µM)
EC50 (XF498): 0.15 µg/mL (≈ 0.276 µM)
EC50 (SK-MEL-2): 0.03 µg/mL (≈ 0.0552 µM)
EC50 (SK-OV-3): 0.15 µg/mL (≈ 0.276 µM)
EC50 (A549): 0.03 µg/mL (≈ 0.0552 µM)
